Assay results reported in patent US10399932B2, “Inhibitors of indoleamine-2,3-dioxygenase for the treatment of cancer” (BRISTOL-MYERS SQUIBB COMPANY, priority 2015, dated 2019).

Target: human IDO1 (Homo sapiens, UniProt P14902)
Test: Assessment of human IDO-1 inhibitory activity in HEK cells (human IDO1/HEK293 cells, Ehrlich reagent, absorbance at 490 nm)
Type: cell-based
Set-up: expressed in transfected cells
Settings: In Vitro Potency in the HEK Human IDO-1 Cellular Assay
Protocol: Exemplary compounds were tested for inhibition of IDO activity.
HEK293 cells were transfected with a pCDNA-based mammalian expression vector harboring human IDO1 cDNA (NM 002164.2) by electroporation. They were cultured in medium (DMEM with 10% FBS) containing 1 mg/ml G418 for two weeks. Clones of HEK293 cells that stably expressed human IDO1 protein were selected and expanded for IDO inhibition assay.
The human IDO1/HEK293 cells were seeded at 10,000 cells per 50 μL per well with RPMI/phenol red free media contains 10% FBS in a 384-well black wall clear bottom tissue culture plate (Matrix Technologies LLC) 100 nL of certain concentration of compound was then added to each well using ECHO liquid handling systems. The cells were incubated for 20 hours in 37° C. incubator with 5% CO2.
The compound treatments were stopped by adding trichloroacetic acid (Sigma-Aldrich) to a final concentration at 0.2%. The cell plate was further incubated at 50° C. for 30 minute. The equal volume supernatant (20 μL) and 0.2% (w/v) Ehrlich reagent (4-dimethylaminobenzaldehyde, Sigma-Aldrich) in glacial acetic acid were mixed in a new clear bottom 384-well plate. This plate was then incubated at room temperature for 30 minute. The absorbance at 490 nm was measured on Envision plate reader.
Compound IC50 values were calculated using the counts of 500 nM of a reference standard treatment as one hundred percent inhibition, and counts of no compound but DMSO treatment as zero percent inhibition.

Sequence of human IDO1 (P14902 whole entry): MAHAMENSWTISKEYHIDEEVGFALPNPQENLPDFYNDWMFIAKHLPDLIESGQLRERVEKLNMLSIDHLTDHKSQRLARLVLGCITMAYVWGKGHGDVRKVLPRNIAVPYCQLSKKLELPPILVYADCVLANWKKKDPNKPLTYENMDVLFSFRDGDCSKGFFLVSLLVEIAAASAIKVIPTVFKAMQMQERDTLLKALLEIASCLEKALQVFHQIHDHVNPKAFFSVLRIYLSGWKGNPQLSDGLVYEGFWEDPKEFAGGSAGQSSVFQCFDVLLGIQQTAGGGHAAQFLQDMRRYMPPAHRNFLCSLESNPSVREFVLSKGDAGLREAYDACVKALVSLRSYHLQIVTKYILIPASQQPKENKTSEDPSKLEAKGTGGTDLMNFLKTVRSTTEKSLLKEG

Compound	IC50 [nM]
CCC(CC(=O)O)c1ccc(N(CC2CC2)C2CCOCC2)c(Nc2ccc(C#N)cc2)c1 (single isomer, unassigned) [Example 712, 3-(3-((4-cyanophenyl)amino)-4-((cyclopropylmethyl)(tetrahydro-2H-pyran-4-yl)amino)phenyl)pentanoic acid]	< 5
CCC(CC(=O)O)c1ccc(N(CC2CC2)C(C)C)c(Nc2ccc(Cl)cc2)c1 (single isomer, unassigned) [Example 717, 3-(3-((4-chlorophenyl)amino)-4-((cyclopropylmethyl)(isopropyl)amino)phenyl)pentanoic acid]	< 5
CCC(CC(=O)O)c1ccc(N(CC(C)C)C(C)C)c(Nc2ccc(Cl)cc2)c1 (single isomer, unassigned) [Example 728, 3-(3-((4-Chlorophenyl)amino)-4-(isobutyl(isopropyl)amino)phenyl)pentanoic acid]	< 5
CC(CC(=O)O)c1ccc(N2C[C@@H](C)O[C@@H](C)C2)c(Nc2ccc(C#N)cc2)c1 (single isomer, unassigned) [Example 743]	> 50
CC(CC(=O)O)c1ccc(N2C[C@@H](C)O[C@@H](C)C2)c(Nc2ccc(F)cc2)c1 (single isomer, unassigned) [Example 744]	> 50
CCc1ccc(Nc2cc(C(C)CC(=O)O)ccc2N2C[C@@H](C)O[C@@H](C)C2)cc1 (single isomer, unassigned) [Example 746]	> 50
CCOc1ncc(Nc2cc(C(C)CC(=O)O)ccc2N2C[C@@H](C)O[C@@H](C)C2)cn1 (single isomer, unassigned) [Example 748]	> 50
CCC(CC(=O)O)c1ccc(N2C[C@@H](C)O[C@@H](C)C2)c(Nc2ccc3nc(C)sc3c2)c1 (single isomer, unassigned) [Example 757]	> 50
CCC(CC(=O)O)c1ccc(N2C[C@@H](C)O[C@@H](C)C2)c(Nc2ccc(F)cc2)c1 (single isomer, unassigned) [Example 759]	> 50
CCC(CC(=O)O)c1ccc(N2CCC[C@@H]2C(C)(C)O)c(NC(=O)Nc2ccc(F)cc2)c1 (single isomer, unassigned) [Example 775]	> 50
CCC(CC(=O)O)c1ccc(N2CCC[C@@H]2C(C)(C)O)c(NC(=O)Nc2ccc(Cl)cc2F)c1 (single isomer, unassigned) [Example 776]	> 50
CCC(CC(=O)O)c1ccc(N2CCC[C@@H]2C(C)(C)O)c(NC(=O)Nc2ccc(OC)cc2)c1 (single isomer, unassigned) [Example 777]	> 50
CCOc1ccc(NC(=O)Nc2cc(C(CC)CC(=O)O)ccc2N2CCC[C@@H]2C(C)(C)O)cc1 (single isomer, unassigned) [Example 778]	> 50
CCC(CC(=O)O)c1ccc(N2CCC[C@@H]2C(C)(C)O)c(NC(=O)Nc2ccc(C)cc2)c1 (single isomer, unassigned) [Example 779]	> 50
CC(CC(=O)O)c1ccc(N2CCC[C@H]2C(C)(C)O)c(Nc2ccc(C#N)cc2)c1 (single isomer, unassigned) [Example 802]	> 50

The next lines start with the values.

IC50 [nM]	Compound
> 50	CC(CC(=O)O)c1ccc(N2CCC[C@H]2C(C)(C)O)c(Nc2ccc(F)cc2)c1 (single isomer, unassigned) [Example 803]
> 50	COc1ncc(Nc2cc(C(C)CC(=O)O)ccc2N2CCC[C@H]2C(C)(C)O)cn1 (single isomer, unassigned) [Example 805]
> 50	CCOc1ncc(Nc2cc(C(C)CC(=O)O)ccc2N2CCC[C@H]2C(C)(C)O)cn1 (single isomer, unassigned) [Example 806]
> 50	CCC(CC(=O)O)c1ccc(N2CCC[C@H]2C(C)(C)O)c(NC(=O)Nc2ccc(OC)cc2)c1 (single isomer, unassigned) [Example 827]
> 50	CCC(CC(=O)O)c1ccc(N2CCC[C@H]2C(C)(C)O)c(NC(=O)Nc2ccc(Cl)cc2F)c1 (single isomer, unassigned) [Example 828]
> 50	CCC(CC(=O)O)c1ccc(N2CCC[C@H]2C(C)(C)O)c(NC(=O)Nc2ccc(F)cc2)c1 (single isomer, unassigned) [Example 829]
> 50	CCC(CC(=O)O)c1ccc(N2CCC[C@H]2C(C)(C)O)c(NC(=O)Nc2ccc(OC)cc2F)c1 (single isomer, unassigned) [Example 830]
> 50	CCC(CC(=O)O)c1ccc(N2CCC[C@H]2C(C)(C)O)c(Nc2ccnc(N3CCOCC3)n2)c1 (single isomer, unassigned) [Example 832]
> 50	CCC(CC(=O)O)c1ccc(N2CCC[C@H]2C(C)(C)O)c(Nc2ccc(OCC3CC3)cc2)c1 (single isomer, unassigned) [Example 834]
> 50	CCc1ccc(Nc2cc(C(CC)CC(=O)O)ccc2N2CCC[C@H]2C(C)(C)O)cc1 (single isomer, unassigned) [Example 835]
> 50	CCC(CC(=O)O)c1ccc(N2CCC[C@H]2C(C)(C)O)c(Nc2cnc(OCC3CC3)nc2)c1 (single isomer, unassigned) [Example 838]
> 50	CCC(CC(=O)O)c1ccc(N2CCC[C@H]2C(C)(C)O)c(Nc2cnc(OC)nc2)c1 (single isomer, unassigned) [Example 841]
> 50	CCC(CC(=O)O)c1ccc(N2CCOC[C@H]2C(C)C)c(NC(=O)Nc2ccc(C)cc2)c1 (single isomer, unassigned) [Example 907]
< 50	CCC(CC(=O)O)c1ccc(N2CCOC[C@H]2C(C)C)c(NC(=O)Nc2ccc(Cl)cc2F)c1 (single isomer, unassigned) [Example 908]
< 5	Cc1ccc(NC(=O)Nc2cc(C(C)CC(=O)O)c(F)cc2N(CC(C)C)C2CCCCC2)cc1 (single isomer, unassigned) [Example 957, 3-(4-(Cyclohexyl(isobutyl)amino)-2-fluoro-5-(3-(p-tolyl)ureido)phenyl)butanoic acid]
> 50	CC(C)CN(c1ccc(C(C)CC(=O)O)cc1NC(=O)Nc1cncnc1)C1CCOCC1 (single isomer, unassigned) [Example 964, 3-(4-(isobutyl(tetrahydro-2H-pyran-4-yl)amino)-3-(3-(pyrimidin-5-yl)ureido)phenyl) butanoic acid]
< 50	Cc1ccc(NC(=O)Nc2cc(C(C)CC(=O)O)ccc2N(CC(C)C)C2CCOCC2)cc1 (single isomer, unassigned) [Example 965, 3-(4-(isobutyl(tetrahydro-2H-pyran-4-yl)amino)-3-(3-(p-tolyl)ureido)phenyl)butanoic acid]
< 5	CCC(CC(=O)O)c1cc(F)c(N(CC(C)C)CC(C)C)c(NC(=O)Cc2ccc(C)cc2)c1 (single isomer, unassigned) [Example 980-2]
< 5	CCC(CC(=O)O)c1cc(F)c(N(CC(C)C)CC(C)C)c(NC(=O)Nc2ccc(Cl)cc2F)c1 (single isomer, unassigned) [Example 981-2]
< 5	CCC(CC(=O)O)c1cc(F)c(N(CC(C)C)CC(C)C)c(NC(=O)Nc2ccc(C)c(F)c2)c1 (single isomer, unassigned) [Example 982-2]
< 5	COCC(CC(=O)O)c1ccc(N(CC(C)C)C2CCCCC2)c(NC(=O)Nc2ccc(Cl)cc2F)c1 (single isomer, unassigned) [Example 985-2]
< 50	COCC(CC(=O)O)c1ccc(N(CC(C)C)C2CCCCC2)c(NC(=O)Nc2cc(C)on2)c1 (single isomer, unassigned) [Example 987-2]
